Patent publication US5739300A, “Antiadhesive piperidine-and pyrrolidinecarboxylic acids” (Hoechst Aktiengesellschaft, priority 1995, dated 1998)

Experiments:
E-selectin = biological target: T1, E-selectin (Homo sapiens, UniProt P16581); assay: HL60 cell adhesion assay on recombinant, soluble E-selectin-IgG1 fusion protein; type: cell-based; conditions: read-out: IC 50 values for E-selectin
T1 construct: genetically engineered soluble fusion proteins from the extracytoplasmic domain of E- or P-selectin in each case; made in house; host or cells: COS-7 cells (ATCC), transiently transfected; culture supernatant captured on anti-human IgG
Source text: (§1) Primary assays for the investigation of the action of the compounds of the present invention for cell adhesion to recombinant, soluble selectin fusion proteins.
(§2) In order to test the activity of the compounds according to the invention on the interaction between the E- and P-selectins (old nomenclature ELAM-1 and GMP-140) with their ligands, an assay is used which is only specific for one of these interactions in each case. The ligands are supplied in their natural form as surface structures on promyelocytic HL60 cells. As HL60 cells have ligands and adhesion molecules of very different specificity, the desired specificity of the assay can only be produced by means of the binding component. The binding components used were genetically engineered soluble fusion proteins from the extracytoplasmic domain of E- or P-selectin in each case and the constant region of a human immunoglobulin of the subclass IgG1.
Preparation of L-selectin-IgG1
To prepare soluble L-selectin-IgG1 fusion protein, the genetic construct "ELAM-Rg" published by Walz et al., 1990 was used.
For expression, the plasmid DNA was transfected in COS-7 cells (ATCC) by means of DEAE-dextran (Molecular biological methods: see Ausubel, F. M., Brent, R., Kingston, R. E., Moore, D. D., Seidman, J. G., Struhl, K. and Smith, J. A. 1990. Current Protocols in Molecular Biology, John Wiley, New York). Seven days after transfection, the culture supernatant is recovered, freed from cells and cell fragments by centrifugation and transferred to 25 mM HEPES pH 7.0, 0.3 mM PMSF, 0.02% sodium azide and kept at +4° C. (Walz, G., Aruffo, A., Kolanus, W., Bevilacqua, M. and Seed, B. 1990. Recognition by ELAM-1 of the sialyl-Lex determinant on myeloid and tumor cells. Science 250, 1132-1135.)
(§3) Carrying out the HL60 cell adhesion assays on recombinant, soluble adhesion molecules
(§4) 1. 96-well microtiter test plates (Nunc Maxisorb) are incubated at room temperature for 2 hours with 100 μl of a goat anti-human IgG antibody (Sigma) diluted (1+100) in 50 mM tris pH 9.5. After removing the antibody solution, washing is carried out once with PBS.
(§5) 2. 150 μl of the blocking buffer are left in the wells for 1 hour at room temperature. The composition of the blocking buffer is: 0.1% gelatin, 1% BSA, 5% calf serum, 0.2 mM PMSF, 0.02% sodium azide. After removing the blocking buffer, washing is carried out once with PBS.
(§6) 3. 100 μl each of cell culture supernatant of correspondingly transfected and expressing COS cells are pipetted into the wells, Incubation is carried out for 2 hours at room temperature. After removing the cell culture supernatant, washing is carried out once with PBS.
4. 20 μl of binding buffer are added to the wells. […]

P-selectin = assay: HL60 cell adhesion assay on recombinant, soluble P-selectin-IgG1 fusion protein; type: cell-based; conditions: read-out: IC 50 values for P-selectin
Source text: as §1, §2
Preparation of P-selectin-IgG1
To prepare the soluble P-selectin-lgG1 fusion protein, the genetic construct "CD62Rg" published by Aruffo et al., 1991 is used. The further procedure corresponds to the preparation of L-selectin-IgG1 presented under A1.
Aruffo, A., Kolanus, W., Walz, G., Fredman, P. and Seed, B. 1991. CD62/-P-Selectin recognition of myeloid and tumor cell sulfatides. Cell 67, 35-44.
as §3, §4, §5, §6
4. 20 μl of binding buffer are added to the wells. The binding buffer has the composition: 50 mM HEPES, pH 7.5; 100 mM NaCl; 1 mg/ml BSA; 2 mM MgCl2; 1 mM CaCl2; 3 mM MnCl2; 0.02% sodium azide; 0.2 mM PMSF. To do this, 5 μl of the test substance are pipetted, mixed by swirling the plate and incubated at room temperature for 10 min.
5. 50 ml of a HL60 cell culture having 200,000 cells/ml are centrifuged at 350 g for 4 min. The pellet is resuspended in 10 ml of RPMI 1640 and the cells are centrifuged again. […]

[1] = system: adhesion of leukocytes to the endothelium; assay: Leukocyte adhesion in vivo, intravital microscopy in the rat (mesenterium, LPS-induced); conditions: SPRD (m) rat, LPS 15 mg/kg, vs untreated control
Source text: Leukocyte adhesion--Testing of the activity of the compounds according to the invention in vivo (intravital microscopy in the rat):
The induced adhesion of leukocytes is quantified in the mesenterium of the rat using an intravital microscopic investigation technique (Atherton A. and Born G. V. R., Quantitative investigations of the adhesiveness of circulating polymorphonuclear leukocytes to blood vessel walls. J. Physiol. 222, 447-474, 1972; Seiffge, D. Methoden zur Untersuchung der Rezeptor-vermittelten Interaktion zwischen Leukozyten und Endothelzellen im Entzundungsgeschehen [Methods for investigation of the receptor-mediated interaction between leukocytes and endothelial cells in inflammatory phenomena], in: Ersatz- und Erganzungsmethoden zu Tierversuchen in der biomedizinischen Forschung [Substitution and replacement methods for animal experiments in biomedical research], Schoffl, H. et al., (ed.) Springer, 1995 (in print)). Lasting anesthesia is initiated under inhalation ether anesthesia by intramuscular injection of urethane ([…] of body weight). After exposing vessels (femoral vein for the injection of substances and carotid artery for blood pressure measurement), catheters are tied into them. After this, the corresponding transparent tissue (mesenterium) is exposed by the standard methods known in the literature and arranged on the microscope stage and coated with warm liquid paraffin at 37° C. (Menger, M. D. and Lehr, H, A., Scope and perspectives of intravital microscopy-bridge over from in vitro to in vivo, Immunology Today 14, 519-522, 1993). […] The increased adhesion of leukocytes to the endothelium caused by this means is quantified by direct vital microscopy or with the aid of fluorescent dyes. All measuring operations are recorded by video camera and stored on a video recorder. Over a period of 60 minutes, the number of rolling leukocytes (i.e. all visibly rolling leukocytes which are slower than the flowing erythrocytes) and the number of leukocytes adhering to the endothelium (residence period longer than 5 seconds) is determined every 10 minutes. […]

[2] = system: open rabbit heart perfused with leukocytes; assay: Reperfusion model: adhesion of neutrophils in ischemia/reperfusion on the open rabbit heart (Langendorff)
Procedure: Reperfusion model for investigation of the effects of the adhesion of neutrophils in the course of ischemia/reperfusion on the open rabbit heart
The hearts are perfused at constant pressure according to the Langendorff technique with nutrient solution and also with/without leukocytes or active compound. Ischemia is then produced by tying off the left coronary artery (30 min). After reperfusion (30 min), the leukocyte accumulation is histologically assessed. In the course of the experiment, potentials and arrhythmias are additionally measured on 256 electrodes (total time of experiment about 90 min).

T1 sequence (P16581 with tags, fused parts or gaps): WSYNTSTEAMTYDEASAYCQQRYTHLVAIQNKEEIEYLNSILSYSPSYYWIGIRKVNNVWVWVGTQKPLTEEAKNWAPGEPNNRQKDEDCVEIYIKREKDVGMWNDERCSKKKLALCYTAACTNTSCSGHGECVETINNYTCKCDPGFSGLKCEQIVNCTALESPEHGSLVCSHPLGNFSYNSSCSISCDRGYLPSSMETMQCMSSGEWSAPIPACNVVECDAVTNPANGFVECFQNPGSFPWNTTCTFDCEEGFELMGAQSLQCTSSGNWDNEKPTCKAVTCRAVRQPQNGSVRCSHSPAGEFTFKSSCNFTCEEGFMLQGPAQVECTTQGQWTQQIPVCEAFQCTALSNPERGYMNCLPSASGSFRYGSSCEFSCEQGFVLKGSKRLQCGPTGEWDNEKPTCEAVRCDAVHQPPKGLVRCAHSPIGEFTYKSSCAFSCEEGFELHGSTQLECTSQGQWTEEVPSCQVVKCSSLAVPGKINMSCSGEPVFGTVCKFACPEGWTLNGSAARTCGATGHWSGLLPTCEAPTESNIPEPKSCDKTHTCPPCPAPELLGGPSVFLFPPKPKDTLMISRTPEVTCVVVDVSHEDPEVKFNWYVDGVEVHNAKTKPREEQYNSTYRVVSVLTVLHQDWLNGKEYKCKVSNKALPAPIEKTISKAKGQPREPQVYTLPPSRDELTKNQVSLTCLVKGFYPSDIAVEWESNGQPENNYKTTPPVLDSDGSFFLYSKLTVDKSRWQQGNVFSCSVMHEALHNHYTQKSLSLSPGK

Molecule | IC50 (E-selectin) [µM] | IC50 (P-selectin) [µM] | inhibition (of leukocyte adhesion) ([1]; 1 mg/kg i.v.) [%] | inhibition (of leukocyte adhesion) ([1]; 5 mg/kg i.v.) [%] | inhibition (of leukocyte adhesion) ([1]; 10 mg/kg i.v.) [%] | reduction of arrhythmias ([2]; in the range from about 1 μM) | leukocyte accumulation and arrhythmias ([2]; hearts perfused with leukocytes and active compound, vs untreated hearts)
C[C@@H]1O[C@@H](O[C@@H]2CCCC[C@H]2OC(=O)N2CCC(C(=O)O)CC2)[C@@H](O)[C@H](O)[C@@H]1O [Compound 3a, N-Carbonyl-4-carboxypiperidyl-(1→2)-[(α-L-fucopyranosyl)-(1→1)]-(1R, 2R)-trans-1,2-cyclohexanediol] | > 2000 | > 2000 | 64 | 69 | 81 | considerable reduction of arrhythmias | –
chondroitin sulfate [reference compound] | – | – | – | – | – | – | reduced leukocyte accumulation and arrhythmias

Now from value to molecule, other results behind:

IC50 (E-selectin) [µM] | IC50 (P-selectin) [µM] | Molecule | inhibition (of leukocyte adhesion) ([1]; 1 mg/kg i.v.) [%] | inhibition (of leukocyte adhesion) ([1]; 5 mg/kg i.v.) [%] | inhibition (of leukocyte adhesion) ([1]; 10 mg/kg i.v.) [%] | reduction of arrhythmias ([2]; in the range from about 1 μM) | leukocyte accumulation and arrhythmias ([2]; hearts perfused with leukocytes and active compound, vs untreated hearts)
> 2000 | > 2000 | C[C@@H]1O[C@@H](O[C@@H]2CCCC[C@H]2OC(=O)N2CCCC(CC(C(=O)O)C(=O)O)C2)[C@@H](O)[C@H](O)[C@@H]1O (stereo partly drawn) [Compound 4b, [N-Carbonyl-(1,1-dicarboxyl-ethyl)-(2→3)-piperidyl]-(1→2)-[(α-L-fuco-pyranosyl)-(1→1)]-(1R, 2R)-trans-1,2-cyclohexanediol] | – | – | – | – | –
1600 | 7500 | C[C@@H]1O[C@@H](O[C@@H]2CCCC[C@H]2OC(=O)N2CCC(C(=O)O)(C(=O)O)CC2)[C@@H](O)[C@H](O)[C@@H]1O [Compound 3e, N-Carbonyl-4,4-dicarboxypiperidyl-(1→2)-[(α-L-fucopyranosyl)-(1→1)]-(1R, 2R)-trans-1,2-cyclohexanediol] | – | – | – | – | –
3700 | 2850 | C[C@@H]1O[C@@H](O[C@@H]2CCC[C@H]2OC(=O)N2CCC(C(=O)O)CC2)[C@@H](O)[C@H](O)[C@@H]1O [Compound 1e, N-Carbonyl-4-carboxypiperidyl-(1→2)-[(α-L-fucopyranosyl)-(1→1)]-(1R, 2R)-trans-1,2-cyclopentanediol] | – | – | – | – | –
